Reference: patent publication US7906480B2, “Use of a parathyroid hormone peptide analogs for the treatment of vaginal atrophy” (priority 2002, dated 2011)
“Also recorded” adds a separate entry of the source. Read-outs that look alike come from different tables or passages of the source. No end group written: not given here.

Assays:
[1] = target: T1, PTHPTHrP receptor (Homo sapiens, UniProt Q03431); conditions: cited from earlier work
T1 sequence (Q03431 27-593): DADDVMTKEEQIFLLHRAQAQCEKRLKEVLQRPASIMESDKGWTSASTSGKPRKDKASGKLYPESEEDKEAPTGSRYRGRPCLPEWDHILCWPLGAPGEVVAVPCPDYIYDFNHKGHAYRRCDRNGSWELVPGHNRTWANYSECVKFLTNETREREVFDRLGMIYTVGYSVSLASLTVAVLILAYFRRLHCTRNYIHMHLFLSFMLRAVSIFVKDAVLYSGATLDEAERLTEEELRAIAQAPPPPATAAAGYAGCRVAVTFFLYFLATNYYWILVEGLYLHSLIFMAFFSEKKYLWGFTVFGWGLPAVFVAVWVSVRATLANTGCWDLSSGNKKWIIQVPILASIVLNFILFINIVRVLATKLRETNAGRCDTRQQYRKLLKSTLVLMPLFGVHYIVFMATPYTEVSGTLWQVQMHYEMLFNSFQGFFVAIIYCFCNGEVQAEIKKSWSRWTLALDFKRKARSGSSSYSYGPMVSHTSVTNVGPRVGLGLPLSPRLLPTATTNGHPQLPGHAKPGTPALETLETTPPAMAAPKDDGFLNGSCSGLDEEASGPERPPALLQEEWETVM

[2] = system: cultured human keratinocytes; conditions: in vitro, previously shown in U.S. Pat. Nos. 5,527,772, 5,840,690 and 6,066,618; cited from earlier work
[3] = target: hPTH-2 receptor (Homo sapiens, UniProt P49190); conditions: cited from earlier work
hPTH-2 receptor, sequence (P49190 25-550): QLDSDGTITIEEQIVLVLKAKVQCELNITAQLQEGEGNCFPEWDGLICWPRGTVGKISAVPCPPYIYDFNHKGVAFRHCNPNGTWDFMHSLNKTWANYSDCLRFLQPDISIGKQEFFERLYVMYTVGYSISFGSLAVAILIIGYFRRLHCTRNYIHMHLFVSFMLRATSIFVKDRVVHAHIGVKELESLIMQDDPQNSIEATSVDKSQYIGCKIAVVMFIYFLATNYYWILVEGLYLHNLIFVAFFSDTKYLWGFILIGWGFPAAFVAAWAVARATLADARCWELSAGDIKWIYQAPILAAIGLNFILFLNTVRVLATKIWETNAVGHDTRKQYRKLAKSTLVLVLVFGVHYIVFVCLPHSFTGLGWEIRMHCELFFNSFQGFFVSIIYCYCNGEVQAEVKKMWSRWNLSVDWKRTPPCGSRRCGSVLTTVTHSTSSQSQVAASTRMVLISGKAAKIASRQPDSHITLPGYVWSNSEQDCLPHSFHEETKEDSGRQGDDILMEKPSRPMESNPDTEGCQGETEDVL

[4] = system: mouse vaginal cells; experiment: tritiated thymidine incorporation into DNA of cultured mouse vaginal epithelial cells; assay type: cell-based, SKH-1 hairless mice
Experimental: The vaginas from five SKH-1 hairless mice were harvested, washed, and placed in trypsin 1× overnight. From each, the vaginal epithelium was peeled and rinsed in 0.02% EDTA solution and centrifuged to isolate the cells. The cells were rinsed in media, centrifuged, and plated into a 100 mm dish atop a layer of irradiated 3T3 cells containing media as is used for keratinocytes and described above. The cells were grown and passed into 24 well plates for tritiated thymidine incorporation as described above. Cells were treated with either a placebo vehicle or with 1×10^−7 M PTH(1-34) for 24 hours. The cells were harvested and the DNA was extracted and counted using a beta liquid scintillation counter. The amount of tritiated thymidine recovered in the DNA is a measure of DNA synthesis in the cells and is synonymous with cellular proliferative activity.

[5] = target: T1, PTHPTHrP receptor; conditions: cited from earlier work; remark: listed apart in the source

| Substance | block of inhibition of proliferation or stimulation of differentiation by hPTH(1-34), hPTHrP(1-34), or 1,25(OH)2D3 [2] | further results |
| --- | --- | --- |
| [Leu^11,D-Trp^12]hPTHrP(7-34),Amide [[Leu^11,D-Trp^12]hPTHrP(7-34)NH2] | – | antagonist function at the hPTH/PTHrP receptor [1]: highly potent antagonist |
| [Nle^8,18,Tyr^34]bPTH(7-34),Amide (FXHNLGKHLSSXERVEWLRKKLQDVHNY; norleucine at 8,18; C-terminal amide; Bovine; VARIANT (2)..(12) Xaa = Nle) [[Nle^8,18, Tyr^34]bPTH (7-34)NH2] | block the inhibition of proliferation or stimulation of differentiation | – |
| [Trp^23]hPTHrP(1-36) (AVSEHQLLHDKGKSIQDLRRRFWLHHLIAEIHTAEI; listed as Homo sapiens) [[Trp^23]hPTHrP (1-36)] | – | antagonist function at the PTH-2 receptor [3]: hPTH-2 receptor antagonist; antagonist function at the PTH-2 receptor ([3]; listed as [Trp^23]PTHrP(1-36)): particularly potent antagonist |
| [Tyr^34]bPTH(7-34),Amide (FMHNLGKHLSSMERVEWLRKKLQDVHNY-NH2) [[Tyr^34]bPTH (7-34)NH2] | block the inhibition of proliferation or stimulation of differentiation | – |
| bPTHrP(5-36) (HQLLHDKGKSIQDLRRRFFLHHLIAEIHTAEI; listed as Homo sapiens) [printed only in b18] | block the inhibition of proliferation or stimulation of differentiation | – |
| hPTH(1-34) (SVSEIQLMHNLGKHLNSMERVEWLRKKLQDVHNF; listed as Homo sapiens) | – | incorporation of tritiated thymidine into the DNA (DNA synthesis) ([4]; 1×10^−7 M for 24 hours, versus placebo vehicle, FIG. 1): increased; vaginal cell growth ([4]; conclusion from FIG. 1, mouse vaginal cells in vitro): can stimulate vaginal cell growth; also recorded: can stimulate vaginal cell-growth |
| hPTH(5-34) (IQLMHNLGKHLNSMERVEWLRKKLQDVHNF; listed as Homo sapiens) | block the inhibition of proliferation or stimulation of differentiation | – |
| hPTH(5-36) (IQLMHNLGKHLNSMERVEWLRKKLQDVHNFVA; listed as Homo sapiens) | block the inhibition of proliferation or stimulation of differentiation | – |
| hPTH(7-31) (LMHNLGKHLNSMERVEWLRKKLQDV; listed as Homo sapiens) | block the inhibition of proliferation or stimulation of differentiation | – |
| hPTH(15-34) (LNSMERVEWLRKKLQDVHNF; listed as Homo sapiens) | – | block of binding of hPTH(1-34) or hPTHrP(1-34) to the PTHPTHrP receptor [5]: can block the binding |
| hPTHrP(5-34) | block the inhibition of proliferation or stimulation of differentiation | – |
| hPTHrP(7-31) (LLHDKGKSIQDLRRRFFLHHLIAEI; listed as Homo sapiens) | block the inhibition of proliferation or stimulation of differentiation | – |
| hPTHrP(15-34) (IQDLRRRFFLHHLIAEIHTA; listed as Homo sapiens) | – | block of binding of hPTH(1-34) or hPTHrP(1-34) to the PTHPTHrP receptor [5]: can block the binding |
